Test results taken from patent US20150218141A1, “SUBSTITUTED CARBAMATE COMPOUNDS” (HOFFMANN-LA ROCHE INC, priority 2012, published 2015).
Counter-ions that a name gives are not always drawn.

Molecular target: T1, hTRPA1 (Homo sapiens, UniProt O75762)
T1 construct: host or cells: CHO-K1 Tet-On, Clone 20 (Chinese Hamster Ovary cells, inducible expression)
Test: IC50 determination, dose response calcium flux (FLIPR) assay, ChanTest hTRPA1-CHO stably transfected cell line
Type: cell-based
Conditions: CHO-K1 Tet-On hTRPA1 cells, 30' preincubation, agonist cinnamaldehyde final 100 uM
Experimental: IC50 Determination of Exemplified Compounds Dose Response Assay: ChanTest hTRPA1-CHO Stably Transfected Cell Line
CHO-K1 Tet-On_HOMSA_TRPA1_Clone—20
Growth Media for CHO-K1 Tet-On_HOMSA_TRPA1_Clone—20 • Ham's F-12 with 10% tetracycline-free FBS • 1× penicillin-streptomycin • 1× glutamax • 0.01 mg/ml Blasticidin • 0.40 mg/ml Zeocin • The cell line doubling rate was ˜15 hours. […] Experiments were run at 24 hours post induction.
Plating Conditions CHOK1/TRPA1 Cells: • Harvested cells with 0.025% trypsin/EDTA. • Resuspended cells in growth media without selection antibiotics. • Measured cell density and diluted to 2.4×10^5 cells/ml in media containing 1 ug/ml Doxycycline Plate 25 ul/well into 384 well black/clear tissue culture-treated plates. • Incubated overnight at 37° C.
Reagents: • Replacement Buffer: Hank's Balanced Salt Solution, 20 mM HEPES along with 0.005% BSA and 2× Probenecid • Dye Loading Buffer: Cal-3 NW Calcium dye was prepared by dissolving the contents of one vial with […] Hank's Balanced Salt Solution containing 20 mM HEPES. • Control compounds for CHOK1/TRPA1 cells: AP-18, stock 10 mM, prepare 3.5× compound dilution in a Compound Buffer (HBSS/20 mM HEPES/0.005% BSA)—final concentration 10 uM.
Preparation of Cinnamaldehyde (Agonist Addition):
• Specific gravity=1.046 gm/cc • 1.32 gm/1.046 gm/cc=1.26 ml of stock • Add 1.74 ml DMSO=3.3 M stock • Working solution 4.5× (final 100 uM in Compound Buffer: HBSS/20 mM HEPES/0.005% BSA)
Compounds dilutions were prepared from 5 or 10 mM stock (100% DMSO): • Adjustments of volumes and concentrations were made at time of titration to reflect desired final assay concentrations. • Compounds were tested at either 20 μM three folds dilution 11 steps out or 30 μM two folds dilution 11 steps out. • 3 μl of diluted compound were transferred into Weidmann 384-well plate in duplicates side-by-side.
Compound plates were resuspended with 100 ul of HBSS/20 mM HEPES/0.005% BSA buffer (Compound Buffer):
Growth media was removed from the cell plates (20 ul) and 20 ul of the Replacement Buffer was added followed by addition of 25 ul of diluted dye. All three steps were performed using a Plate Washer BioTek 407. The plates were then incubated for 30′ at RT.
After incubation, both the cell and compound plates were brought to the FLIPR and 20 ul of the diluted compounds/antagonist/bk were transferred to the cell plates by the FLIPR. Plates were then incubated for 30′ at room temperature. After 30′ incubation, plates were returned to the FLIPR and 20 ul of 4.5× Cinnamaldehyde was added to the cell plates. During the compound addition as well as agonist addition, fluorescence readings were taken simultaneously from all 384 wells of the cell plate every 1.5 seconds. Five readings were taken to establish a stable baseline, then 20 ul of sample was rapidly (30 ul/sec) and simultaneously added to each well of the cell plate. The fluorescence was continuously monitored before, during and after sample/agonist addition for a total elapsed time of 100 seconds (compound addition) and 120 seconds (agonist addition). Responses (increase in peak fluorescence) in each well following agonist addition was determined. The initial fluorescence reading from each well, prior to ligand stimulation, was used a zero baseline value for the data from that well.

T1 sequence (O75762 whole entry): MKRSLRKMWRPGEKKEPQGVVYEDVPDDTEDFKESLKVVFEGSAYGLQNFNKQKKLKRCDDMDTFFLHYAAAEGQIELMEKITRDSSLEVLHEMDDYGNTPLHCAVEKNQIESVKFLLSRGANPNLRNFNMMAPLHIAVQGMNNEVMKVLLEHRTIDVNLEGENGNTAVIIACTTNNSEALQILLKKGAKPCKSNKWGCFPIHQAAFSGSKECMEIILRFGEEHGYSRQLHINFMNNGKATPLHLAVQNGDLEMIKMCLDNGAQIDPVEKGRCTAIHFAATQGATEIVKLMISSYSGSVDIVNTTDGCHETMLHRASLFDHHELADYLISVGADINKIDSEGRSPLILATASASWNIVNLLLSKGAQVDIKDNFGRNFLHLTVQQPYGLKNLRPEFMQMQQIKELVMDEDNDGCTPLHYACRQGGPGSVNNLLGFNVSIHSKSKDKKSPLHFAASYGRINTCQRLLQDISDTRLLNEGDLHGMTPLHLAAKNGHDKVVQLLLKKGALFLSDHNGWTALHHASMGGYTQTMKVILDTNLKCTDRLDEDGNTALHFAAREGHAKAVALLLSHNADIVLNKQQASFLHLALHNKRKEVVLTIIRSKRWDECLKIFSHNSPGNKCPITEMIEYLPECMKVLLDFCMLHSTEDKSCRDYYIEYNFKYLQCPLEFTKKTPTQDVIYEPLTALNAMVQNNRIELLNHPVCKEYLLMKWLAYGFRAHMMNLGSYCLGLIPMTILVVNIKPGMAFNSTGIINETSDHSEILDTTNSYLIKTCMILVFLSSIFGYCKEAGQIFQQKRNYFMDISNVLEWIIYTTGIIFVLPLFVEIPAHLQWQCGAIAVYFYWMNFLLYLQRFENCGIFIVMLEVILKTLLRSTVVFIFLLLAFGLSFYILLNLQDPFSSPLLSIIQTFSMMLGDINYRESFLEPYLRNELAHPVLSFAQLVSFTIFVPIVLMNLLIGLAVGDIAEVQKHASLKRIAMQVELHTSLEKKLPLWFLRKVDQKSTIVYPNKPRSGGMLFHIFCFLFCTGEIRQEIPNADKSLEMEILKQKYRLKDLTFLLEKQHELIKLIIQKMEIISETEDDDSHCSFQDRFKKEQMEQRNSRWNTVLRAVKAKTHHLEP

Going from `O=C(Nc1ccc(Cl)cc1)O[C@@H](CN1CCC[C@@H](c2ccccc2)C1)C(F)(F)F` [Example 6, (4-Chlorophenyl)-carbamic acid (S)-2,2,2-trifluoro-1-((S)-3-phenylpiperidin-1-ylmethyl)-ethyl ester hydrochloride] to `O=C(Nc1ccc(Cl)cc1)O[C@H](CN1CCC[C@H](c2ccccc2)C1)C(F)(F)F` [Example 7, (4-Chlorophenyl)-carbamic acid (R)-2,2,2-trifluoro-1-((R)-3-phenylpiperidin-1-ylmethyl)-ethyl ester hydrochloride], the IC50 rises from 1500 nM to 6400 nM (4.3-fold).

Going from `O=C(Nc1ccc(Cl)cc1)O[C@H](CN1CCC[C@@H](c2ccccc2)C1)C(F)(F)F` [Example 8, (4-Chlorophenyl)-carbamic acid (R)-2,2,2-trifluoro-1-((S)-3-phenylpiperidin-1-ylmethyl)-ethyl ester hydrochloride] to `O=C(Nc1ccc(Cl)cc1)OC(CN1CCCC(c2ccccc2)C1)C(F)(F)F` (centres unmarked) [Example 36, (4-Chlorophenyl)-carbamic acid 2,2,2-trifluoro-1-(3-phenylpiperidin-1-ylmethyl)-ethyl ester hydrochloride], the IC50 falls from 6200 nM to 625 nM (9.9-fold).

Going from `O=C(Nc1ccc(Cl)cc1)OC(CN1CCCC(Cc2ccccc2)C1)C(F)(F)F` (centres unmarked) [Example 9, (4-Chlorophenyl)-carbamic acid 1-(3-benzylpiperidin-1-ylmethyl)-2,2,2-trifluoroethyl ester hydrochloride salt (1:1)] to `O=C(Nc1ccc(Cl)cc1)OC(CN1CCCC(OCc2ccccc2)C1)C(F)(F)F` (centres unmarked) [Example 14, (4-Chlorophenyl)-carbamic acid 1-(3-benzyloxypiperidin-1-ylmethyl)-2,2,2-trifluoroethyl ester], the IC50 falls from 339 nM to 137 nM (2.5-fold). The second is the more potent here.

Going from `COc1cccc(CC2CCCN(C[C@H](OC(=O)Nc3ccc(Cl)cc3)C(F)(F)F)C2)c1` (stereo partly drawn) [Example 12, (4-Chlorophenyl)-carbamic acid (S)-2,2,2-trifluoro-1-[3-(3-methoxybenzyl)-piperidin-1-ylmethyl]-ethyl ester hydrochloride salt (1:1)] to `COc1ccc(CC2CCCN(C[C@H](OC(=O)Nc3ccc(Cl)cc3)C(F)(F)F)C2)cc1` (some centres unmarked) [Example 20, (4-Chlorophenyl)-carbamic acid 2,2,2-trifluoro-1-[3-(4-methoxybenzyl)-piperidin-1-ylmethyl]-ethyl ester], the IC50 falls from 550 nM to 165 nM (3.3-fold). The second is the more potent here.

Going from `N#CC1CCCN(CC(OC(=O)Nc2ccc(Cl)cc2)C(F)(F)F)C1` (centres unmarked) [Example 13, (4-Chlorophenyl)-carbamic acid 1-(3-cyanopiperidin-1-ylmethyl)-2,2,2-trifluoroethyl ester] to `COC1CCCN(CC(OC(=O)Nc2ccc(Cl)cc2)C(F)(F)F)C1` (centres unmarked) [Example 16, (4-Chlorophenyl)-carbamic acid 2,2,2-trifluoro-1-(3-methoxypiperidin-1-ylmethyl)-ethyl ester], the IC50 rises from 277 nM to 4160 nM (15-fold). The first is the more potent here.

Going from `O=C(Nc1ccc(Cl)cc1)OC(CN1CCCC(C(F)(F)F)C1)C(F)(F)F` (centres unmarked) [Example 15, (4-chlorophenyl)-carbamic acid 2,2,2-trifluoro-1-(3-trifluoromethylpiperidin-1-ylmethyl)-ethyl ester] to `CCC1CCCN(CC(OC(=O)Nc2ccc(Cl)cc2)C(F)(F)F)C1` (centres unmarked) [Example 17, (4-Chlorophenyl)-carbamic acid 1-(3-ethylpiperidin-1-ylmethyl)-2,2,2-trifluoroethyl ester], the IC50 rises from 563 nM to 900 nM (1.6-fold). The first is the more potent here.

Compared with `O=C(Nc1ccc(Cl)cc1)OC(CN1CCCC(C2CCCCC2)C1)C(F)(F)F` (centres unmarked) [Example 18, (4-Chlorophenyl)-carbamic acid 1-(3-cyclohexylpiperidin-1-ylmethyl)-2,2,2-trifluoroethyl ester], `COCCCC1CCCN(CC(OC(=O)Nc2ccc(Cl)cc2)C(F)(F)F)C1` (centres unmarked) [Example 19, (4-Chlorophenyl)-carbamic acid 2,2,2-trifluoro-1-[3-(3-methoxypropyl)-piperidin-1-ylmethyl]-ethyl ester] is 3.1-fold lower in IC50: 883 nM for the first, 288 nM for the second. The second is the more potent here.

Going from `COc1cc(OC)cc(C2CCCN(C[C@H](OC(=O)Nc3ccc(Cl)cc3)C(F)(F)F)C2)c1` (stereo partly drawn) [Example 21, (4-Chlorophenyl)-carbamic acid (S)-1-[3-(3,5-dimethoxyphenyl)-piperidin-1-ylmethyl]-2,2,2-trifluoroethyl ester] to `COc1ccc(C2CCCN(C[C@H](OC(=O)Nc3ccc(Cl)cc3)C(F)(F)F)C2)cc1` (stereo partly drawn) [Example 38, (4-Chlorophenyl)-carbamic acid (S)-2,2,2-trifluoro-1-[3-(4-methoxyphenyl)-piperidin-1-ylmethyl]-ethyl ester], the IC50 rises from 203 nM to 622 nM (3.1-fold).

First: O=C(Nc1ccc(Cl)cc1)O[C@@H](CN1CCC[C@H](c2cc(C(F)(F)F)cc(C(F)(F)F)c2)C1)C(F)(F)F [Example 23, (4-Chlorophenyl)-carbamic acid (S)-1-[(R)-3-(3,5-bis-trifluoromethylphenyl)-piperidin-1ylmethyl]-2,2,2-trifluoroethyl ester]
Second: O=C(Nc1ccc(Cl)cc1)O[C@@H](CN1CCCC(c2cccc(C(F)(F)F)c2)C1)C(F)(F)F (stereo partly drawn) [Example 29, (4-Chlorophenyl)-carbamic acid (S)-2,2,2-trifluoro-1-[3-(3-trifluoromethylphenyl)-piperidin-1-ylmethyl]-ethyl ester hydrochloride]
The IC50 of the first is 1.6-fold lower: 21.5 nM for the first, 35.4 nM for the second.

First: O=C(Nc1ccc(Cl)cc1)OC(CN1CCCC(c2ccccc2)CC1)C(F)(F)F (centres unmarked) [Example 27, (4-Chlorophenyl)-carbamic acid 2,2,2-trifluoro-1-(4-phenyl-azepan-1-ylmethyl)-ethyl ester]
Second: O=C(Nc1ccc(Cl)cc1)O[C@@H](CN1CCCC(C(=O)c2ccccc2)C1)C(F)(F)F (stereo partly drawn) [Example 39, (4-Chlorophenyl)-carbamic acid (S)-1-(3-benzoylpiperidin-1-ylmethyl)-2,2,2-trifluoroethyl ester hydrochloride]
The IC50 of the first is 2.6-fold higher: 2260 nM for the first, 865 nM for the second.

`COc1cc(C2CCCN(C[C@H](OC(=O)Nc3ccc(Cl)cc3)C(F)(F)F)C2)ccc1F` (stereo partly drawn) [Example 31, (4-Chlorophenyl)-carbamic acid (S)-2,2,2-trifluoro-1-[3-(4-fluoro-3-methoxyphenyl)-piperidin-1-ylmethyl]-ethyl ester hydrochloride] and `COc1cc([C@H]2CCCN(C[C@H](OC(=O)Nc3ccc(Cl)cc3)C(F)(F)F)C2)ccc1F` [Example 32, (4-Chloro-phenyl)-carbamic acid (S)-2,2,2-trifluoro-1-[(R)-3-(4-fluoro-3-methoxy-phenyl)-piperidin-1-ylmethyl]-ethyl ester hydrochloride] are within 1.5-fold of each other in IC50: 168 nM for the first, 113 nM for the second.

Going from `O=C(Nc1ccc(Cl)cc1)O[C@@H](CN1CCC(F)(F)CC1)C(F)(F)F` [Example 33, (4-Chlorophenyl)-carbamic acid (S)-1-(4,4-difluoropiperidin-1-ylmethyl)-2,2,2-trifluoroethyl ester hydrochloride] to `O=C(Nc1ccc(Cl)cc1)OC(CN1CCCC(c2ccc(Cl)cc2)C1)C(F)(F)F` (centres unmarked) [Example 37, (4-Chlorophenyl)-carbamic acid 1-[3-(4-chlorophenyl)-piperidin-1-ylmethyl]-2,2,2-trifluoro ethyl ester], the IC50 rises from 78.3 nM to 522 nM (6.7-fold). The first is the more potent here.

`COCCOc1cc(C2CCCN(C[C@H](OC(=O)Nc3ccc(Cl)cc3)C(F)(F)F)C2)ccc1F` (stereo partly drawn) [Example 34, (4-Chlorophenyl)-carbamic acid (S)-2,2,2-trifluoro-1-{3-[4-fluoro-3-(2-methoxyethoxy)-phenyl]-piperidin-1-ylmethyl}-ethyl ester] and `COCCOc1cc([C@H]2CCCN(C[C@H](OC(=O)Nc3ccc(Cl)cc3)C(F)(F)F)C2)ccc1F` [Example 35, (4-Chlorophenyl)-carbamic acid (S)-2,2,2-trifluoro-1-{(R)-3-[4-fluoro-3-(2-methoxyethoxy)-phenyl]-piperidin-1-ylmethyl}-ethyl ester hydrochloride] are within 1.5-fold of each other in IC50: 339 nM for the first, 334 nM for the second.
